In ChEMBL document CHEMBL3286294, “Buthionine sulfoximine diverts the melanogenesis pathway toward the production of more soluble and degradable pigments” (Bioorg Med Chem Lett, 2014):
Calls of active or inactive are those of the source. The calls are words filed in the database; no cut-off is given here.

Columns and labels:
[1] = molecular target: T1, Tyrosinase (Agaricus bisporus) (UniProt O42713); experiment: Induction of eumelanogenesis assessed as mushroom tyrosinase-mediated simulation of eumelanogenesis by measuring oxidation of L-DOPA at 4.5 to 184.4 mM after 48 hrs by Vis-spectrophotometer analysis in absence of glutathione and presence of H2O2
T1 sequence (whole entry): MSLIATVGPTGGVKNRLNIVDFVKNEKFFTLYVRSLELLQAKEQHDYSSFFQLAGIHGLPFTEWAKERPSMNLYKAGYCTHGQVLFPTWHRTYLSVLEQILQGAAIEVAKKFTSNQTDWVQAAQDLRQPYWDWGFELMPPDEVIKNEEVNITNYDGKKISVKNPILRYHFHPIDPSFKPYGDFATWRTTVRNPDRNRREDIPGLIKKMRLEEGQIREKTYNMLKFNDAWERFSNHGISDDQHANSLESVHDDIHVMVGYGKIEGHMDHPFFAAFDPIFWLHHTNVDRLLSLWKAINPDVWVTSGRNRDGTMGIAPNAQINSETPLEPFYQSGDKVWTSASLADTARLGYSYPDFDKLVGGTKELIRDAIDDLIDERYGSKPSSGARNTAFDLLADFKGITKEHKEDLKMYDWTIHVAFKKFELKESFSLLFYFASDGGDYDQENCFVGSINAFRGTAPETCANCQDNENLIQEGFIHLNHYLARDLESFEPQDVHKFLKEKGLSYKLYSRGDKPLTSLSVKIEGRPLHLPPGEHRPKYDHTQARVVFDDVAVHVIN

[2] = molecular target: T1, Tyrosinase (Agaricus bisporus); experiment: Induction of pheomelanogenesis assessed as mushroom tyrosinase-mediated simulation of pheomelanogenesis by measuring oxidation of L-DOPA at 4.5 to 184.4 mM after 48 hrs by Vis-spectrophotometer analysis in presence of 0.65 to 3.2 mM of glutathione
[3] = molecular target: T1, Tyrosinase (Agaricus bisporus); experiment: Induction of eumelanogenesis assessed as mushroom tyrosinase-mediated simulation of eumelanogenesis by measuring oxidation of L-DOPA at 4.5 to 184.4 mM after 48 hrs by Vis-spectrophotometer analysis in absence of glutathione
[4] = molecular target: T1, Tyrosinase (Agaricus bisporus); experiment: Inhibition of mushroom tyrosinase-mediated simulation of pheomelanogenesis assessed as oxidation of L-DOPA at 4.5 to 184.4 mM after 48 hrs by Vis-spectrophotometer analysis in presence of 16.3 to 81.3 mM of glutathione
[5] = molecular target: T1, Tyrosinase (Agaricus bisporus); experiment: Induction of pheomelanogenesis assessed as mushroom tyrosinase-mediated simulation of pheomelanogenesis by measuring oxidation of L-DOPA at 4.5 to 184.4 mM after 48 hrs by Vis-spectrophotometer analysis in presence of 0.65 to 3.2 mM of glutathione and H2O2

Activity [1]: Active
Activity [2]: Active
Activity [3]: Active
inhibition [4]: Active
Activity [5]: Active
SMILES: CCCCS(=N)(=O)CCC(N)C(=O)O (racemic)
